What was measured:
excessive barking [1] = test: Excessive barking of a Pomeranian with separation anxiety during 30 minutes after every one left the room; type: in vivo, dog (Pomeranian)
Description: The following experiment was performed by using an 11 years old Pomeranian (4.5 kg weight) in which a symptom of separation anxiety was confirmed.
The experimental animal was fed in a room which was equipped with an air conditioner keeping 22° C. and were provided with 200 g of canned dog food (Science Diet Maintenance, beef can, Japan Hills Colgate ) twice per day in the morning and in the evening. Water was freely provided. The animals had been habituated in the experimental cages before recording the frequency of excessive barking with a set up video camera. Excessive barking during 30 minutes after every one left the room was recorded for 2 days. The barking frequency on day 1 was 178 times and 203 times on day 2. […] The barking frequency for that recording was 0 (zero).

excessive barking [2] = test: Excessive barking of beagles during 5 minutes before feeding after intravenous SKF97541; type: in vivo, dog (beagles); settings: mean and standard error
Description: Two ovariectomized healthy female beagles (10 kg) of 2 years old were used for the following experiments.
(§1) The experiments was performed for seven (7) days as one cycle and the data were recorded, which were repeated for 3 months (12 cycles). The data were statistically processed. The experimental dogs were fed in a room which was equipped with an air conditioner keeping 22° C. During the first 6 days, the animals were fed with 400 g of food (Science Diet Maintenance, dry, Japan Hills Colgate) at 4 o'clock every day. Water was freely provided. The animals were habituated in the experimental cages. The seventh (7th) day in each cycle, the condition was kept except that the indicated amount of SKF97541 ([…] receptor agonist) was intravenously administrated at 2 o'clock P.M. The frequency of barking during 5 minutes before feeding was recorded every day by a video camera. The ratio of the frequency of barking on the day where the animals were received SKF97541 to the mean values of the barking frequency during the first 6 days where the animals were not received SKF97541 is indicated as percentages in Table 1 and FIG. 1.

[3] = General symptom of animals, beagle experiment; type: in vivo, dog (beagles); settings: beagles, intravenous SKF97541
Description: as §1

kainate receptors = settings: cited from earlier work

NCCCC(=O)O [GABA, γ-aminobutyric acid]
barking frequency during 30 minutes after every one left the room (excessive barking [1]; 150 mg powdered GABA mixed with canned dog food, oral, untreated days 178 and 203 times): 0

CP(=O)(O)CCCN [SKF97541, 3-aminopropyl(methyl)phosphinic acid]
(frequency of barking on the administrated day) / (frequency of barking on non-administrated days) (excessive barking [2]; amount of administrated SKF97541 0.025 (unit not given)): 118.2 ± 0.0% | (frequency of barking on the administrated day) / (frequency of barking on non-administrated days) (excessive barking [2]; amount of administrated SKF97541 0.05 (unit not given)): 90.2 ± 6.2% | (frequency of barking on the administrated day) / (frequency of barking on non-administrated days) (excessive barking [2]; amount of administrated SKF97541 0.1 (unit not given)): 44.0 ± 1.1% | (frequency of barking on the administrated day) / (frequency of barking on non-administrated days) (excessive barking [2]; amount of administrated SKF97541 0.2 (unit not given)): 8.8 ± 8.8% | (frequency of barking on the administrated day) / (frequency of barking on non-administrated days) (excessive barking [2]; amount of administrated SKF97541 0.5 (unit not given)): 0% | general symptom of animals [3]: no notable point regarding to the general symptom of animals was observed | barking frequency during 30 minutes after every one left the room (excessive barking [1]; SKF97541 intravenous 0.05 mg/kg body weight): did not bark | barking frequency during 30 minutes after every one left the room (excessive barking [1]; SKF97541 intravenous 0.1 mg/kg body weight): did not bark

O=C1N=c2cc([N+](=O)[O-])c([N+](=O)[O-])cc2=NC1=O [DNQX, 6,7-dinitroquinoxaline-2,3-dione]
inhibition of running activity induced by kainate (kainate receptors; rat): inhibited

C=C(C)[C@H]1CN[C@H](C(=O)O)[C@H]1CC(=O)O [kainate]
induction of running activity in rat (kainate receptors): induced

— patent publication US20030018027A1 (priority 2001, published 2003)
